Data reported in PubChem BioAssay AID1963967 (Molecular Pharmacology Branch, DTP, NCI, 2024).

System: 855422-203-R-J1-PDC spheroids with HUVEC/MSC, viability
Assay: Anticancer human tumor 855422-203-R-J1-PDC patient-derived bladder carcinoma cell line growth inhibition [PI3K]
Conditions: for viability, T/C: stronger effect = lower value
Summary of the method: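 Multi-cell spheroids combine tumor cells with HUVEC and human MSCs, treated with targeted agents alone or with inavolisib, alpelisib, duvelisib or copanlisib. Concentrations fall in half-log steps from at or near clinical Cmax, or from 10 microM where Cmax is unknown; viability read-out.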

[1] = curve of first compound, second compound 0.0316 µM
[2] = curve of first compound, second compound 0.1 µM
[3] = curve of first compound, second compound 0.316 µM
[4] = curve of first compound, second compound 1 µM
[5] = curve of first compound, second compound 0.00316 µM
[6] = curve of first compound, second compound 0.01 µM
[7] = second compound 0.00316 µM, first compound 0.0316 µM
[8] = second compound 0.00316 µM, first compound 0.1 µM
[9] = second compound 0.00316 µM, first compound 0.316 µM
[10] = second compound 0.00316 µM, first compound 1 µM
[11] = second compound 0.00316 µM, first compound 3.16 µM
[12] = second compound 0.00316 µM, first compound 10 µM
[13] = second compound 0.01 µM, first compound 0.0316 µM
[14] = second compound 0.01 µM, first compound 0.1 µM
[15] = second compound 0.01 µM, first compound 0.316 µM
[16] = second compound 0.01 µM, first compound 1 µM
[17] = second compound 0.01 µM, first compound 3.16 µM
[18] = second compound 0.01 µM, first compound 10 µM
[19] = second compound 0.0316 µM, first compound 0.0316 µM
[20] = second compound 0.0316 µM, first compound 0.1 µM
[21] = second compound 0.0316 µM, first compound 0.316 µM
[22] = second compound 0.0316 µM, first compound 1 µM
[23] = second compound 0.0316 µM, first compound 3.16 µM
[24] = second compound 0.0316 µM, first compound 10 µM
[25] = second compound 0.1 µM, first compound 0.0316 µM
[26] = second compound 0.1 µM, first compound 0.1 µM
[27] = second compound 0.1 µM, first compound 0.316 µM
[28] = second compound 0.1 µM, first compound 1 µM
[29] = second compound 0.1 µM, first compound 3.16 µM
[30] = second compound 0.1 µM, first compound 10 µM
[31] = second compound 0.316 µM, first compound 0.0316 µM
[32] = second compound 0.316 µM, first compound 0.1 µM
[33] = second compound 0.316 µM, first compound 0.316 µM
[34] = second compound 0.316 µM, first compound 1 µM
[35] = second compound 0.316 µM, first compound 3.16 µM
[36] = second compound 0.316 µM, first compound 10 µM
[37] = second compound 1 µM, first compound 0.0316 µM
[38] = second compound 1 µM, first compound 0.1 µM
[39] = second compound 1 µM, first compound 0.316 µM
[40] = second compound 1 µM, first compound 1 µM
[41] = second compound 1 µM, first compound 3.16 µM
[42] = second compound 1 µM, first compound 10 µM
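Note: agents incubated with spheroids for one week before read-out.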
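Throughout, for viability, T/C: 100% = DMSO vehicle-treated control wells.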

Compound `Cn1cnc2c(F)c(Nc3ccc(Br)cc3Cl)c(C(=O)NOCCO)cc21` + CC(Nc1ncnc2nc[nH]c12)c1cc2cccc(Cl)c2c(=O)n1-c1ccccc1 has an IC50 [1] of over 3 µM, an IC50 [2] of over 3 µM and an IC50 [3] of 2.38 µM. For the same compound, the IC50 [4] was 2.17 µM, the IC50 (curve of first compound, second compound 3.16 µM) was 1.65 µM and the IC50 (curve of first compound, second compound 10 µM) was 0.529 µM. For the same compound, the viability, T/C (second compound 0.0316 µM, first compound 0.00949 µM) was 116%, the viability, T/C (second compound 0.0316 µM, first compound 0.03 µM) was 90.7% and the viability, T/C (second compound 0.0316 µM, first compound 0.0949 µM) was 114%. For the same compound, the viability, T/C (second compound 0.0316 µM, first compound 0.3 µM) was 87.9%, the viability, T/C (second compound 0.0316 µM, first compound 0.949 µM) was 78.6% and the viability, T/C (second compound 0.0316 µM, first compound 3 µM) was 50.4%. The viability, T/C (second compound 0.1 µM, first compound 0.00949 µM) was 109%, the viability, T/C (second compound 0.1 µM, first compound 0.03 µM) was 97% and the viability, T/C (second compound 0.1 µM, first compound 0.0949 µM) was 104%. The viability, T/C (second compound 0.1 µM, first compound 0.3 µM) was 93.8%, the viability, T/C (second compound 0.1 µM, first compound 0.949 µM) was 90.5% and the viability, T/C (second compound 0.1 µM, first compound 3 µM) was 50.1%. It also gave a viability, T/C (second compound 0.316 µM, first compound 0.00949 µM) of 91.2%, a viability, T/C (second compound 0.316 µM, first compound 0.03 µM) of 100% and a viability, T/C (second compound 0.316 µM, first compound 0.0949 µM) of 101%. For the same compound, the viability, T/C (second compound 0.316 µM, first compound 0.3 µM) was 103%, the viability, T/C (second compound 0.316 µM, first compound 0.949 µM) was 80.2% and the viability, T/C (second compound 0.316 µM, first compound 3 µM) was 42.4%. For the same compound, the viability, T/C (second compound 1 µM, first compound 0.00949 µM) was 86.9%, the viability, T/C (second compound 1 µM, first compound 0.03 µM) was 96.3% and the viability, T/C (second compound 1 µM, first compound 0.0949 µM) was 103%. The viability, T/C (second compound 1 µM, first compound 0.3 µM) was 88.1%, the viability, T/C (second compound 1 µM, first compound 0.949 µM) was 79% and the viability, T/C (second compound 1 µM, first compound 3 µM) was 38.7%. For the same compound, the viability, T/C (second compound 3.16 µM, first compound 0.00949 µM) was 97%, the viability, T/C (second compound 3.16 µM, first compound 0.03 µM) was 96.5% and the viability, T/C (second compound 3.16 µM, first compound 0.0949 µM) was 100%. The viability, T/C (second compound 3.16 µM, first compound 0.3 µM) was 87.3%, the viability, T/C (second compound 3.16 µM, first compound 0.949 µM) was 67.3% and the viability, T/C (second compound 3.16 µM, first compound 3 µM) was 31.8%. It also gave a viability, T/C (second compound 10 µM, first compound 0.00949 µM) of 85.9%, a viability, T/C (second compound 10 µM, first compound 0.03 µM) of 74.1% and a viability, T/C (second compound 10 µM, first compound 0.0949 µM) of 70.9%. The viability, T/C (second compound 10 µM, first compound 0.3 µM) was 58.6%, the viability, T/C (second compound 10 µM, first compound 0.949 µM) was 41.6% and the viability, T/C (second compound 10 µM, first compound 3 µM) was 21.4%.
For `CNC(=O)c1ccc(N2C(=S)N(c3ccc(C#N)c(C(F)(F)F)c3)C(=O)C2(C)C)cc1F`, the viability, T/C (compound 0.0316 µM) was 110% [middle of 4 runs], the viability, T/C (compound 0.1 µM) was 99.4% [middle of 4 runs] and the viability, T/C (compound 0.316 µM) was 106% [middle of 4 runs]. For the same compound, the viability, T/C (compound 1 µM) was 84.8% [middle of 4 runs], the viability, T/C (compound 3.16 µM) was 79.4% [middle of 4 runs] and the viability, T/C (compound 10 µM) was 66.9% [middle of 4 runs]. The IC50 (curve of compound) was over 10 µM.
Compound `CCCS(=O)(=O)Nc1ccc(F)c(C(=O)c2c[nH]c3ncc(-c4ccc(Cl)cc4)cc23)c1F` + CC(Nc1ccc2c(c1)OCCn1cc(N3C(=O)OCC3C(F)F)nc1-2)C(N)=O has an IC50 [5] of 3.28 µM, an IC50 [6] of 4.55 µM and an IC50 [1] of 4.53 µM. It also gave an IC50 [2] of 3.58 µM, an IC50 [3] of 0.981 µM and an IC50 [4] of under 0.0316 µM. The viability, T/C [7] was 110%, the viability, T/C [8] was 89.8% and the viability, T/C [9] was 104%. For the same compound, the viability, T/C [10] was 76.1%, the viability, T/C [11] was 52.6% and the viability, T/C [12] was 0.17%. It also gave a viability, T/C [13] of 99.2%, a viability, T/C [14] of 85.2% and a viability, T/C [15] of 91.8%. The viability, T/C [16] was 78.5%, the viability, T/C [17] was 75.8% and the viability, T/C [18] was 0.24%. The viability, T/C [19] was 92%, the viability, T/C [20] was 79.9% and the viability, T/C [21] was 98.7%. It also gave a viability, T/C [22] of 87.8%, a viability, T/C [23] of 72.5% and a viability, T/C [24] of 0.18%. It also gave a viability, T/C [25] of 77.2%, a viability, T/C [26] of 82% and a viability, T/C [27] of 74.4%. The viability, T/C [28] was 72%, the viability, T/C [29] was 56.7% and the viability, T/C [30] was 0.28%. The viability, T/C [31] was 58.9%, the viability, T/C [32] was 53.3% and the viability, T/C [33] was 54.9%. For the same compound, the viability, T/C [34] was 48.9%, the viability, T/C [35] was 37.1% and the viability, T/C [36] was 0.2%. It also gave a viability, T/C [37] of 36.7%, a viability, T/C [38] of 36.5% and a viability, T/C [39] of 34.2%. The viability, T/C [40] was 34.8%, the viability, T/C [41] was 24.1% and the viability, T/C [42] was 0.31%.
For `Cn1cnc2c(F)c(Nc3ccc(Br)cc3Cl)c(C(=O)NOCCO)cc21`, the viability, T/C (compound 0.00949 µM) was 100% [middle of 4 runs], the viability, T/C (compound 0.03 µM) was 94.8% [middle of 4 runs] and the viability, T/C (compound 0.0949 µM) was 101% [middle of 4 runs]. For the same compound, the viability, T/C (compound 0.3 µM) was 88% [middle of 4 runs], the viability, T/C (compound 0.949 µM) was 87.5% [middle of 4 runs] and the viability, T/C (compound 3 µM) was 47% [middle of 4 runs]. The IC50 (curve of compound) was 2.81 µM [middle of 4 runs].
`CC(Cn1ccc(-c2ccc(C#N)c(Cl)c2)n1)NC(=O)c1cc(C(C)O)[nH]n1` (stereo not given) + COc1c(OCCCN2CCOCC2)ccc2c3n(c(=NC(=O)c4cnc(N)nc4)nc12)CCN3 was tested, and the IC50 [5] was over 10 µM, the IC50 [6] was over 10 µM and the IC50 [1] was over 10 µM. For the same compound, the IC50 [2] was under 0.0316 µM, the IC50 [3] was under 0.0316 µM and the IC50 [4] was under 0.0316 µM. It also gave a viability, T/C [7] of 110%, a viability, T/C [8] of 90.4% and a viability, T/C [9] of 99.9%. For the same compound, the viability, T/C [10] was 80.3%, the viability, T/C [11] was 108% and the viability, T/C [12] was 86.8%. It also gave a viability, T/C [13] of 91.4%, a viability, T/C [14] of 83.7% and a viability, T/C [15] of 87.4%. It also gave a viability, T/C [16] of 103%, a viability, T/C [17] of 86.6% and a viability, T/C [18] of 72.8%. The viability, T/C [19] was 60.4%, the viability, T/C [20] was 64.4% and the viability, T/C [21] was 59.8%. The viability, T/C [22] was 68.7%, the viability, T/C [23] was 75.3% and the viability, T/C [24] was 58.6%. The viability, T/C [25] was 26.6%, the viability, T/C [26] was 25.5% and the viability, T/C [27] was 27.3%. For the same compound, the viability, T/C [28] was 30.1%, the viability, T/C [29] was 27.9% and the viability, T/C [30] was 25.3%. It also gave a viability, T/C [31] of 7.87%, a viability, T/C [32] of 8.84% and a viability, T/C [33] of 7.77%. The viability, T/C [34] was 9.07%, the viability, T/C [35] was 10.8% and the viability, T/C [36] was 7.91%. The viability, T/C [37] was 5.17%, the viability, T/C [38] was 4.25% and the viability, T/C [39] was 3.21%. It also gave a viability, T/C [40] of 3.76%, a viability, T/C [41] of 4.49% and a viability, T/C [42] of 3.05%.
